In patent US20030153603A1, “Agent for enhancing accumulation of drugs in tumor tissues” (Toray Industries, Inc., priority 1999, published 2003):

What was measured:
Type in all cases: in vivo, Donryu rats
tumor tissue [1] = assay: Permeability of Evans Blue in various tissues, beraprost sodium intravenously administered vs not administered; details: 20 μg injected into the tail vein; tumor-bearing rats; P<0.05
Experimental: A 136B cells were transplanted to dorsa of feet of Donryu rats to form solid tumors. To each of the tumor-bearing rats, 0.5 mL of solution of Evans Blue (1.5%) in physiological saline was administered i.v. and then 2 μg of beraprost sodium was injected into common iliac artery which is the tumor-controlling artery. The blood vessel perneability-increasing effect was evaluated by comparing the amounts of the accumulated Evans Blue-albumin complex in the tissue, which is the index of the blood vessel permeability in the tumor tissue, of the beraprost sodium-administered group and of the non-administered group. As a result, it was observed that by administration of 2 μg of beraprost sodium, the blood vessel permeability was increased to about 3.4 times that of the non-administered group (P<0.01). The amount of the accumulated Evans Blue was spectrophotometrically quantified after extraction with formamide at 30° C. for 48 hours. […] The blood vessel permeability-increasing effect was evaluated by comparing the amounts of the accumulated Evans Blue-albumin complex in the tissues of the beraprost sodium-administered group and of the non-administered group. […] The amount of the accumulated Evans Blue was quantified in the same manner as in Example 1.

tumor tissue [2] = assay: Permeability of Evans Blue in tumor tissue, beraprost sodium arterially administered vs not administered; details: 2 μg injected into common iliac artery; A 136B solid tumor on dorsum of foot; P<0.01
Experimental: A 136B cells were transplanted to dorsa of feet of Donryu rats to form solid tumors. To each of the tumor-bearing rats, 0.5 mL of solution of Evans Blue (1.5%) in physiological saline was administered i.v. and then 2 μg of beraprost sodium was injected into common iliac artery which is the tumor-controlling artery. The blood vessel perneability-increasing effect was evaluated by comparing the amounts of the accumulated Evans Blue-albumin complex in the tissue, which is the index of the blood vessel permeability in the tumor tissue, of the beraprost sodium-administered group and of the non-administered group. As a result, it was observed that by administration of 2 μg of beraprost sodium, the blood vessel permeability was increased to about 3.4 times that of the non-administered group (P<0.01). The amount of the accumulated Evans Blue was spectrophotometrically quantified after extraction with formamide at 30° C. for 48 hours.

tumor tissue [3] = assay: Change in blood flow in various tissues after 0.2, 2 or 20 μg beraprost sodium (Doppler type blood flowmeter); details: 0.2, 2 or 20 μg injected
Experimental: A 136B cells were transplanted to dorsa of feet of Donryu rats to form solid tumors. To each of the tumor-bearing rats, 0.5 mL of solution of Evans Blue (1.5%) in physiological saline was administered i.v. and then 2 μg of beraprost sodium was injected into common iliac artery which is the tumor-controlling artery. The blood vessel perneability-increasing effect was evaluated by comparing the amounts of the accumulated Evans Blue-albumin complex in the tissue, which is the index of the blood vessel permeability in the tumor tissue, of the beraprost sodium-administered group and of the non-administered group. As a result, it was observed that by administration of 2 μg of beraprost sodium, the blood vessel permeability was increased to about 3.4 times that of the non-administered group (P<0.01). The amount of the accumulated Evans Blue was spectrophotometrically quantified after extraction with formamide at 30° C. for 48 hours. Into common iliac artery which is the tumor-controlling artery of the tumor on the dorsum of foot of each of the tumor-bearing rats prepared in the same manner as in Examples 1 to 3, 0.2, 2, or 20 μg of beraprost sodium was arterially injected and the change in the blood flow was measured by a Doppler type blood flowmeter. […]

tumor tissue [4] = assay: Change in blood flow in various tissues by continuous arterial injection (Doppler type blood flowmeter)
Experimental: A 136B cells were transplanted to dorsa of feet of Donryu rats to form solid tumors. To each of the tumor-bearing rats, 0.5 mL of solution of Evans Blue (1.5%) in physiological saline was administered i.v. and then 2 μg of beraprost sodium was injected into common iliac artery which is the tumor-controlling artery. The blood vessel perneability-increasing effect was evaluated by comparing the amounts of the accumulated Evans Blue-albumin complex in the tissue, which is the index of the blood vessel permeability in the tumor tissue, of the beraprost sodium-administered group and of the non-administered group. As a result, it was observed that by administration of 2 μg of beraprost sodium, the blood vessel permeability was increased to about 3.4 times that of the non-administered group (P<0.01). The amount of the accumulated Evans Blue was spectrophotometrically quantified after extraction with formamide at 30° C. for 48 hours. Into common iliac artery which is the tumor-controlling artery of the tumor on the dorsum of foot of each of the tumor-bearing rats prepared in the same manner as in Examples 1 and 2, 0.3 mL of beraprost sodium solution (30 μg/mL) in middle-length fatty acid was arterially injected continuously for 1 minute. The changes in the blood flow in various tissues were measured by a Doppler type blood flowmeter. The rate of change was expressed in terms of % of the average during 10 minutes after the beginning of the arterial injection based on the average during several minutes before the arterial injection. […] This was the phenomenon brought about by the specific relaxation of the blood vessels in the tumor tissues.

With `CC#CCC(C)[C@H](O)/C=C/C1[C@H](O)C[C@@H]2Oc3c(CCCC(=O)O)cccc3[C@H]12` (stereo partly shown) [beraprost sodium] the “blood vessel permeability (accumulated Evans Blue-albumin complex in the tissues)” value (tumor tissue [1]) was “about 1.5 times that of the non-administered group”, the “blood vessel permeability (accumulated Evans Blue-albumin complex in tumor tissue)” value (tumor tissue [2]) was “about 3.4 times that of the non-administered group” and the “decrease in the blood flow in normal tissue organs such as liver and kidney” value (tumor tissue [3]) was “not observed”. The “blood flow in the tumor” value (tumor tissue [3]; average during 10 minutes after start vs before) was “Sharp decrease”, the “blood flow in the tumor compared with kidney” value (tumor tissue [4]; continuous arterial injection at 10 μg/kg/min, P<0.05) was “significantly more decreased than in kidney” and the “blood flow in the tumor compared with kidney and liver” value (tumor tissue [4]; continuous arterial injection at 17 μg/kg/min, tumor vs. liver P<0.05, tumor vs. kidney P<0.01) was “significantly more decreased than in kidney and in liver”. The “blood flow in the tumor tissue” value (tumor tissue [4]; continuous arterial injection for 1 minute into common iliac artery, average during 10 minutes after start vs before) was “sharply decreased dose-dependently”.
